Assay results: ChEMBL document CHEMBL3885881, “DrugMatrix”
Values joined by “and” are separate entries in the source; they are usually repeats but may differ in a detail not shown here. Identical values can stand only once.

Organism: Rattus norvegicus
Assay: DrugMatrix - Regimen: Daily Repeat
Type: toxicity, organism-based, Sprague-Dawley
Set-up: regimen Daily Repeat, gender Male, age 6-8 weeks
Settings: in vivo, ip, route intraperitoneal, vehicle 100 % SALINE; for ABSOLUTE BASOPHIL / ABSOLUTE EOSINOPHIL / ABSOLUTE LYMPHOCYTE / ABSOLUTE MONOCYTE / ABSOLUTE SEGMENTED NEUTROPHIL / BASOPHIL / EOSINOPHIL / ERYTHROCYTE COUNT / HEMATOCRIT / HEMOGLOBIN / LEUKOCYTE COUNT / LYMPHOCYTE / MEAN CORPUSCULAR HEMOGLOBIN / MEAN CORPUSCULAR HEMOGLOBIN CONCENTRATION / MEAN CORPUSCULAR VOLUME / MONOCYTE / NEUTROPHIL / PLATELET COUNT: tissue Blood; for ALANINE AMINOTRANSFERASE / ALBUMIN / ALKALINE PHOSPHATASE / ASPARTATE AMINOTRANSFERASE / BLOOD UREA NITROGEN / CARBON DIOXIDE / CHLORIDE / CHOLESTEROL / CREATINE PHOSPHOKINASE / CREATININE / GLUCOSE / LACTATE DEHYDROGENASE / LIPASE / PHOSPHORUS / POTASSIUM / SODIUM / TOTAL BILIRUBIN / TOTAL PROTEIN / URIC ACID: tissue Plasma
[1] = 0 mg/kg, 120 h, dose level Control, time 5 day
[2] = 0 mg/kg, […], dose level Control, time 14 day
[3] = 0 mg/kg, […], dose level Control, time 28 day
[4] = 40 mg/kg, 120 h, dose level High, time 5 day
[5] = 40 mg/kg, […], dose level High, time 14 day
[6] = 40 mg/kg, […], dose level High, time 28 day

CCN[C@@H]1C[C@H](N)[C@@H](O[C@H]2OC(CN)=CC[C@H]2N)[C@H](O)[C@H]1O[C@H]1OC[C@](C)(O)[C@H](NC)[C@H]1O [NETILMICIN]
ABSOLUTE BASOPHIL [1]: 32 cells/µL
ABSOLUTE EOSINOPHIL [1]: 110 cells/µL
ABSOLUTE LYMPHOCYTE [1]: 6630 cells/µL
ABSOLUTE MONOCYTE [1]: 140 cells/µL
ABSOLUTE SEGMENTED NEUTROPHIL [1]: 1170 cells/µL
BASOPHIL [1]: 0.38% and 0.35%
EOSINOPHIL [1]: 1.28% and 0.62%
ERYTHROCYTE COUNT [1]: 7.45 x10E6/uL and 7.26 x10E6/uL
HEMATOCRIT [1]: 45.74% and 47.97%
HEMOGLOBIN [1]: 14.72 G/DL and 15.38 G/DL
LEUKOCYTE COUNT [1]: 8.11 x10E3/uL and 8.68 x10E3/uL
LYMPHOCYTE [1]: 81.3% and 86.77%
MEAN CORPUSCULAR HEMOGLOBIN [1]: 19.76 pg and 21.18 pg
MEAN CORPUSCULAR HEMOGLOBIN CONCENTRATION [1]: 32.16 G/DL and 32.05 G/DL
MEAN CORPUSCULAR VOLUME [1]: 61.38 fL and 66.15 fL
MONOCYTE [1]: 1.76% and 1.57%
NEUTROPHIL [1]: 14.9% and 9.53%
PLATELET COUNT [1]: 1322.4 x10E3/uL and 1786 x10E3/uL
ALANINE AMINOTRANSFERASE [1]: 25.8 u/L and 20.5 u/L
ALBUMIN [1]: 3.64 G/DL and 4.35 G/DL
ALKALINE PHOSPHATASE [1]: 233.6 u/L and 300 u/L
ASPARTATE AMINOTRANSFERASE [1]: 81.4 u/L and 86.75 u/L
BLOOD UREA NITROGEN [1]: 14.4 mg/dL and 17 mg/dL
CARBON DIOXIDE [1]: 29 mmol/L
CHLORIDE [1]: 105.6 MEQ/L and 106.25 MEQ/L
CHOLESTEROL [1]: 69.2 mg/dL and 51.25 mg/dL
CREATINE PHOSPHOKINASE [1]: 384.75 u/L
CREATININE [1]: 0.56 mg/dL and 0.47 mg/dL
GLUCOSE [1]: 125.4 mg/dL and 128.75 mg/dL
LACTATE DEHYDROGENASE [1]: 105.4 u/L and 145 u/L
LIPASE [1]: 22.4 u/L and 13.25 u/L
PHOSPHORUS [1]: 11.48 mg/dL and 11.8 mg/dL
POTASSIUM [1]: 5.52 MEQ/L and 6.58 MEQ/L
SODIUM [1]: 147 MEQ/L and 151 MEQ/L
TOTAL BILIRUBIN [1]: 0.2 mg/dL and 0.33 mg/dL
TOTAL PROTEIN [1]: 6.1 G/DL and 6.53 G/DL
URIC ACID [1]: 1.06 mg/dL and 1.95 mg/dL
ABSOLUTE BASOPHIL [2]: 130 cells/µL
ABSOLUTE EOSINOPHIL [2]: 140 cells/µL
ABSOLUTE LYMPHOCYTE [2]: 13500 cells/µL
ABSOLUTE MONOCYTE [2]: 400 cells/µL
ABSOLUTE SEGMENTED NEUTROPHIL [2]: 2330 cells/µL
HEMATOCRIT [2]: 45.98%
ABSOLUTE BASOPHIL [3]: 91 cells/µL
ABSOLUTE EOSINOPHIL [3]: 110 cells/µL
ABSOLUTE LYMPHOCYTE [3]: 9910 cells/µL
ABSOLUTE MONOCYTE [3]: 210 cells/µL
ABSOLUTE SEGMENTED NEUTROPHIL [3]: 1560 cells/µL
BASOPHIL [3]: 0.77%
EOSINOPHIL [3]: 0.92%
ERYTHROCYTE COUNT [3]: 8.21 x10E6/uL
HEMATOCRIT [3]: 47.53%
HEMOGLOBIN [3]: 15.65 G/DL
LEUKOCYTE COUNT [3]: 11.91 x10E3/uL
LYMPHOCYTE [3]: 83.34%
MEAN CORPUSCULAR HEMOGLOBIN [3]: 19.07 pg
MEAN CORPUSCULAR HEMOGLOBIN CONCENTRATION [3]: 32.93 G/DL
MEAN CORPUSCULAR VOLUME [3]: 57.9 fL
MONOCYTE [3]: 1.68%
NEUTROPHIL [3]: 12.97%
PLATELET COUNT [3]: 1323.8 x10E3/uL
CARBON DIOXIDE [2]: 25 mmol/L
ALANINE AMINOTRANSFERASE [3]: 30 u/L
ALBUMIN [3]: 3.71 G/DL
ALKALINE PHOSPHATASE [3]: 186.8 u/L
ASPARTATE AMINOTRANSFERASE [3]: 78.2 u/L
BLOOD UREA NITROGEN [3]: 14.2 mg/dL
CHLORIDE [3]: 105.4 MEQ/L
CHOLESTEROL [3]: 44.9 mg/dL
CREATINE PHOSPHOKINASE [3]: 334.3 u/L
CREATININE [3]: 0.6 mg/dL
GLUCOSE [3]: 147.2 mg/dL
LACTATE DEHYDROGENASE [3]: 123.1 u/L
LIPASE [3]: 9.6 u/L
PHOSPHORUS [3]: 10.01 mg/dL
POTASSIUM [3]: 6.57 MEQ/L
SODIUM [3]: 149.5 MEQ/L
TOTAL BILIRUBIN [3]: 0.21 mg/dL
TOTAL PROTEIN [3]: 6.66 G/DL
URIC ACID [3]: 1.26 mg/dL
ABSOLUTE BASOPHIL [4]: 100 cells/µL
ABSOLUTE EOSINOPHIL [4]: 100 cells/µL
ABSOLUTE LYMPHOCYTE [4]: 9410 cells/µL
ABSOLUTE MONOCYTE [4]: 270 cells/µL
ABSOLUTE SEGMENTED NEUTROPHIL [4]: 2070 cells/µL
BASOPHIL [4]: 0.82% and 0.23%
EOSINOPHIL [4]: 0.84% and 0.53%
ERYTHROCYTE COUNT [4]: 7.28 x10E6/uL and 7.2 x10E6/uL
HEMATOCRIT [4]: 44.78% and 47.4%
HEMOGLOBIN [4]: 14.6 G/DL and 14.93 G/DL
LEUKOCYTE COUNT [4]: 12 x10E3/uL and 6.78 x10E3/uL
LYMPHOCYTE [4]: 78.86% and 87.63%
MEAN CORPUSCULAR HEMOGLOBIN [4]: 20.02 pg and 20.77 pg
MEAN CORPUSCULAR HEMOGLOBIN CONCENTRATION [4]: 32.56 G/DL and 31.5 G/DL
MEAN CORPUSCULAR VOLUME [4]: 61.44 fL and 65.9 fL
MONOCYTE [4]: 2.18% and 1.53%
NEUTROPHIL [4]: 16.76% and 9.17%
PLATELET COUNT [4]: 1295.4 x10E3/uL and 1697.67 x10E3/uL
ALANINE AMINOTRANSFERASE [4]: 28.4 u/L and 20.25 u/L
ALBUMIN [4]: 3.44 G/DL and 4.28 G/DL
ALKALINE PHOSPHATASE [4]: 235.6 u/L and 305.25 u/L
ASPARTATE AMINOTRANSFERASE [4]: 91.8 u/L and 87.25 u/L
BLOOD UREA NITROGEN [4]: 12 mg/dL and 14.25 mg/dL
CARBON DIOXIDE [4]: 24.75 mmol/L
CHLORIDE [4]: 108.2 MEQ/L and 108.25 MEQ/L
CHOLESTEROL [4]: 53.8 mg/dL and 53 mg/dL
CREATINE PHOSPHOKINASE [4]: 194.6 u/L and 310.75 u/L
CREATININE [4]: 0.5 mg/dL and 0.47 mg/dL
GLUCOSE [4]: 137 mg/dL and 119.5 mg/dL
LACTATE DEHYDROGENASE [4]: 83.75 u/L and 121.25 u/L
LIPASE [4]: 16 u/L and 7 u/L
PHOSPHORUS [4]: 10.04 mg/dL and 12.5 mg/dL
POTASSIUM [4]: 6.52 MEQ/L and 5.8 MEQ/L
SODIUM [4]: 151.2 MEQ/L and 152.75 MEQ/L
TOTAL BILIRUBIN [4]: 0.12 mg/dL and 0.28 mg/dL
TOTAL PROTEIN [4]: 5.86 G/DL and 6.35 G/DL
URIC ACID [4]: 1.12 mg/dL and 2.02 mg/dL
ABSOLUTE BASOPHIL [5]: 76 cells/µL
ABSOLUTE EOSINOPHIL [5]: 100 cells/µL
ABSOLUTE LYMPHOCYTE [5]: 7150 cells/µL
ABSOLUTE MONOCYTE [5]: 160 cells/µL
ABSOLUTE SEGMENTED NEUTROPHIL [5]: 980 cells/µL
ABSOLUTE BASOPHIL [6]: 110 cells/µL
ABSOLUTE EOSINOPHIL [6]: 110 cells/µL
ABSOLUTE LYMPHOCYTE [6]: 11000 cells/µL
ABSOLUTE MONOCYTE [6]: 220 cells/µL
ABSOLUTE SEGMENTED NEUTROPHIL [6]: 1680 cells/µL
BASOPHIL [6]: 0.84%
EOSINOPHIL [6]: 0.81%
ERYTHROCYTE COUNT [6]: 8.07 x10E6/uL
HEMATOCRIT [6]: 45.66%
HEMOGLOBIN [6]: 15.06 G/DL
LEUKOCYTE COUNT [6]: 13.21 x10E3/uL
LYMPHOCYTE [6]: 83.38%
MEAN CORPUSCULAR HEMOGLOBIN [6]: 18.66 pg
MEAN CORPUSCULAR HEMOGLOBIN CONCENTRATION [6]: 32.99 G/DL
MEAN CORPUSCULAR VOLUME [6]: 56.56 fL
MONOCYTE [6]: 1.71%
NEUTROPHIL [6]: 12.78%
PLATELET COUNT [6]: 1402.4 x10E3/uL
CARBON DIOXIDE [5]: 27 mmol/L
ALANINE AMINOTRANSFERASE [6]: 27.9 u/L
ALBUMIN [6]: 3.58 G/DL
ALKALINE PHOSPHATASE [6]: 144.2 u/L
ASPARTATE AMINOTRANSFERASE [6]: 86.4 u/L
BLOOD UREA NITROGEN [6]: 16.3 mg/dL
CHLORIDE [6]: 108.5 MEQ/L
CHOLESTEROL [6]: 59.4 mg/dL
CREATINE PHOSPHOKINASE [6]: 139.4 u/L
CREATININE [6]: 0.7 mg/dL
GLUCOSE [6]: 120.4 mg/dL
LACTATE DEHYDROGENASE [6]: 85.6 u/L
LIPASE [6]: 22.9 u/L
PHOSPHORUS [6]: 8.66 mg/dL
POTASSIUM [6]: 5.83 MEQ/L
